The record followed here is US9447075B2, “Pyridazine derivatives as EAAT2 activators” (The Brigham and Women's Hospital, Inc., priority 2011, dated 2016).

The test system of this assay is EAAT2. Briefly: EAAT2 protein levels in PA-EAAT2 cells by Western blot. Particulars: for Fold increase for EAAT2, 4 h / Fold increase for EAAT2, 24 h: compound 10 μM, PA-EAAT2 cells, relative to DMSO controls, na = not active; for Fold increase for EAAT2, 4 h: 4 h incubation; for SAR comparison of activity on EAAT2 protein levels, in words: relative to parent/comparator analogue, Tables 1-4; for Fold increase for EAAT2, 24 h: 24 h incubation; for Improvement of potency/activity compared to 1: compared to compound 1, Table 4. Format: cell-based, human. The method, then:
All of the derivates of 1 were initially evaluated in PA-EAAT2 cells^3 (a primary astrocyte line stably expressing EAAT2 mRNAs) following compound (10 μM) incubation for 4 and 24 h before harvesting and measuring EAAT2 levels by Western blot analysis. The fold increases in EAAT2 protein levels relative to DMSO controls are reported (Tables 1-4).
Characterization and efficacy studies of a compound, Compound 212320 (FIG. 6A) is shown. […] In the absence of serum, PA-EAAT2 cells express low amounts of EAAT2 protein, although the recombinant EAAT2 mRNA are expressed (translational silencing); however, EAAT2 protein levels are increased when an activator is added to the culture (translational activation). This cell line was used for high-throughput screening to identify EAAT2 translational activators. To prioritize candidate compounds, we initially evaluated activation of EAAT2 protein in PA-EAAT2 cells. Promising compounds were further evaluated in primary dissociated neuron and astrocyte mixed cultures and then in mice. FIG. 6 presents the characterization of Compound 212320 in PA-EAAT2 cells. Compound 212320 increased EAAT2 protein levels in a dose—(FIG. 6B) and time—(FIG. 6C) dependent manner. Importantly, the induction occurred in a short amount of time (within 1-2 hr) and was sustained even up to 72 hr (data not show). Additionally, induction occurred at low nanomolar concentrations. […] (FIG. 6D).
Background: In western blotting, separated proteins are transferred to a membrane and probed.

Where “and” joins values, the source holds several entries; their conditions need not be identical. Identical values can stand only once.

Regarding `O=S(=O)(Cc1ccccc1Cl)c1ccc(-c2ccccn2)nn1` [Compound 9-3], the “Fold increase for EAAT2, 4 h” value is reported as 1.6 ± 0.3 fold and the “SAR comparison of activity on EAAT2 protein levels, in words” value (from here on “SAR comparison of activity”) was “detrimental”.

As for `Fc1ccc(Sc2ccc(-c3ccccn3)nn2)c(Cl)c1` [Compound 7-34], the “Fold increase for EAAT2, 4 h” value was 1.3 ± 0.1 fold and the “Fold increase for EAAT2, 24 h” value is given as 2.5 ± 0.7 fold.

In the case of `c1ccc(-c2ccc(SC3CCCc4ccccc43)nn2)nc1` (racemic) [Compound 7-33], the “Improvement of potency/activity compared to 1” value is reported as “about 3 fold” and the “Fold increase for EAAT2, 24 h” value is given as 5.3 ± 1.1 fold.

Take `Cc1ccc(CSc2ccc(-c3ccccn3)nn2)c(C)c1` [Compound 7-17]: the “Fold increase for EAAT2, 4 h” value came to 1.9 ± 0.8 fold; the “Fold increase for EAAT2, 24 h” value is 6.4 ± 1.0 fold; the “SAR comparison of activity” value was “increased potency”.

For the molecule `Cc1ccc(CSc2ccc(-c3ccncc3)nn2)cc1` [Compound 7-11], the “Fold increase for EAAT2, 4 h” value turned out to be 1.3 ± 0.1 fold; the “Fold increase for EAAT2, 24 h” value is listed as 2.4 ± 0.6 fold; the “SAR comparison of activity” value is “reduced activity”.

On to `Cc1ccccc1CNC(=O)c1ccc(-c2ccccn2)nn1` [Compound 17-2], for which the “Fold increase for EAAT2, 24 h” value worked out at 1.4 ± 0.2 fold and the “SAR comparison of activity” value is “not tolerated”.

With `Cc1ccccc1COc1ccc(-c2ccccn2)nn1` [Compound 8-1], the “Fold increase for EAAT2, 4 h” value is given as 2.0 ± 0.9 fold and the “Fold increase for EAAT2, 24 h” value is recorded as 2.5 ± 0.5 fold.

Take `Fc1cccc(Cl)c1CCOc1ccc(-c2ccccn2)nn1` [Compound 8-5]: the “Fold increase for EAAT2, 4 h” value turned out to be 2.2 ± 0.4 fold and the “Fold increase for EAAT2, 24 h” value is reported as 3.1 ± 1.2 fold.

Regarding `Cc1cccc(C)c1COc1ccc(-c2ccccn2)nn1` [Compound 8-3], the “Fold increase for EAAT2, 4 h” value came to 2.1 ± 1.2 fold and the “Fold increase for EAAT2, 24 h” value is recorded as 3.2 ± 1.4 fold.

Turning to `Cc1ccc(COc2ccc(-c3ccccn3)nn2)c(C)c1` [Compound 8-7], the “Fold increase for EAAT2, 24 h” value is on record as 2.0 ± 0.9 fold.

Turning to `c1ccc(CSc2ccc(-c3ccccn3)cc2)cc1` [Compound 19], the “Fold increase for EAAT2, 4 h” value turned out to be 1.2 ± 0.5 fold and the “Fold increase for EAAT2, 24 h” value came to 1.1 ± 0.4 fold.

With `CC(C)OC(=O)c1ccc(-c2ccccn2)nn1` [Compound 27], the “Activity (EAAT2 increase), in words” value (compounds 23-27 assessed) is “active”.

`Clc1ccccc1CSc1ccc(-c2ccncc2)nn1` [Compound 7-9]: the “Fold increase for EAAT2, 4 h” value is reported as 1.5 ± 0.2 fold; the “Fold increase for EAAT2, 24 h” value amounted to 1.7 ± 0.3 fold; the “SAR comparison of activity” value was “reduced activity”.

For `Cc1ccccc1COc1ccc(-c2ccccn2)nc1` [Compound 15], the “Fold increase for EAAT2, 4 h” value came out at 1.5 ± 0.3 fold.

As to `Fc1ccc(CSc2ccc(-c3ccccn3)nn2)c(F)c1` [Compound 7-16], the “Fold increase for EAAT2, 4 h” value is on record as 2.4 ± 1.5 fold; the “Fold increase for EAAT2, 24 h” value amounted to 3.8 ± 0.8 fold; the “SAR comparison of activity” value is “improved activity”.

As to `Clc1ccc(Cl)c(CSc2ccc(-c3ccccn3)nn2)c1` [Compound 7-20], the “Fold increase for EAAT2, 4 h” value was found to be 1.4 ± 0.1 fold; the “Fold increase for EAAT2, 24 h” value stood at 2.5 ± 0.4 fold; the “SAR comparison of activity” value is given as “equivalent to 1”.

`Fc1cccc(Cl)c1CCSc1ccc(-c2ccccn2)nn1` [Compound 7-15]: the “Fold increase for EAAT2, 4 h” value was found to be 1.9 ± 0.7 fold; the “Fold increase for EAAT2, 24 h” value came out at 6.7 ± 1.5 fold; the “SAR comparison of activity” value was “more potent”.

In the case of `Fc1ccc(CSc2ccc(-c3ccccn3)nn2)c(Cl)c1` [Compound 7-35], the “Fold increase for EAAT2, 4 h” value was 1.6 ± 0.6 fold and the “Fold increase for EAAT2, 24 h” value came to 1.7 ± 0.4 fold.

As for `Clc1ccccc1CCSc1ccc(-c2ccccn2)nn1` [Compound 7-31], the “Fold increase for EAAT2, 4 h” value turned out to be 1.7 ± 0.2 fold; the “Fold increase for EAAT2, 24 h” value stood at 4.8 ± 0.6 fold; the “SAR comparison of activity” value was “more potent”.

On to `CCCNC(=O)c1ccc(-c2ccccn2)nn1` [Compound 17-1], for which the “Fold increase for EAAT2, 24 h” value amounted to 1.2 ± 0.2 fold and the “SAR comparison of activity” value is on record as “not tolerated”.

In the case of `O=S(=O)(Cc1c(F)cccc1Cl)c1ccc(-c2ccccn2)nn1` [Compound 9-1], the “Fold increase for EAAT2, 4 h” value is 1.4 ± 0.3 fold; the “Fold increase for EAAT2, 24 h” value worked out at 2.8 ± 0.4 fold; the “SAR comparison of activity” value is given as “detrimental”.

Take `Cc1ccc(-c2ccc(SCc3c(F)cccc3Cl)nn2)cc1` [Compound 7-3]: the “Fold increase for EAAT2, 4 h” value is given as 1.2 ± 0.2 fold and the “Fold increase for EAAT2, 24 h” value came out at 2.3 ± 0.7 fold.

Regarding `Fc1ccccc1CSc1ccc(-c2ccccn2)nn1` [Compound 7-23], the “Fold increase for EAAT2, 4 h” value was determined as 2.2 ± 0.1 fold; the “Fold increase for EAAT2, 24 h” value is recorded as 3.1 ± 0.2 fold; the “SAR comparison of activity” value is recorded as “improved activity”.

For the molecule `Cc1ccccc1CSc1ccc(-c2ccccn2)cn1` [Compound 22], the “Fold increase for EAAT2, 4 h” value is recorded as 1.3 ± 0.6 fold.

As for `Cc1ccc(CSc2ccc(-c3ccccn3)nn2)cc1` [Compound 7-28], the “SAR comparison of activity” value was “less potent”.

On to `Clc1ccccc1CSc1ccc(-c2cccnc2)nn1` [Compound 7-8], for which the “Fold increase for EAAT2, 4 h” value is 1.2 ± 0.4 fold; the “Fold increase for EAAT2, 24 h” value amounted to 1.2 ± 0.3 fold; the “SAR comparison of activity” value was “reduced activity”.

In the case of `Clc1cccc(Cl)c1CSc1ccc(-c2ccccn2)nn1` [Compound 7-22], the “Improvement of potency/activity compared to 1” value is listed as “two-fold”; the “Fold increase for EAAT2, 4 h” value was 1.5 ± 0.8 fold; the “Fold increase for EAAT2, 24 h” value stood at 3.9 ± 0.4 fold.

`Fc1ccc(CSc2ccc(-c3ccccn3)nn2)cc1` [Compound 7-24]: the “Fold increase for EAAT2, 4 h” value amounted to 2.5 ± 0.6 fold; the “Fold increase for EAAT2, 24 h” value was 2.6 ± 0.3 fold; the “SAR comparison of activity” value is listed as “did not result in significant improvement”.

Take `Clc1cccc(CSc2ccc(-c3ccccn3)nn2)c1Cl` [Compound 7-19]: the “Fold increase for EAAT2, 24 h” value is given as 2.4 ± 0.4 fold and the “SAR comparison of activity” value is listed as “equivalent to 1”.

Take `Cc1ccccc1CSc1ccc(-c2cccnc2)nn1` [Compound 7-5]: the “Fold increase for EAAT2, 4 h” value stood at 1.5 ± 0.4 fold and the “SAR comparison of activity” value was “reduced activity”.

With `Fc1cccc(Cl)c1CSc1ccc(-c2ccncc2)nn1` [Compound 7-2], the “Fold increase for EAAT2, 24 h” value was found to be 1.9 ± 0.9 fold and the “SAR comparison of activity” value was “reduced activity”.

Take `Cc1ccc(CSc2ccc(-c3ccccn3)nn2)cc1` [Compound 7-10]: the “Fold increase for EAAT2, 4 h” value is reported as 2.1 ± 1.1 fold and the “Fold increase for EAAT2, 24 h” value was determined as 2.6 ± 0.4 fold.

On to `c1ccc(CSc2ccc(-c3ccccn3)nn2)cc1` [Compound 7-12], for which the “Fold increase for EAAT2, 4 h” value is 1.3 ± 0.2 fold; the “Fold increase for EAAT2, 24 h” value was 3.0 ± 0.4 fold and 3.0 ± 0.5 fold; the “SAR comparison of activity” value was “essentially the same potency as 1”.
